Marks after values point to notes of the source that are not given here.
How the values were obtained:
[1] = Purification of water draining through the dump site, TS 1 (Example 16)
Protocol: Drainage water sample was taken from dumping site containing polluted soil: ca. 200 mg/l of Ca^2+ and Mg^2+; 0.05-0.3 mg/l of Al^3+, Ba^2+, Mn^2+, Mo^6+, Ni^2+ and Zn^2+; ≦0.05 mg/l of As^3+ (or As^5+), Cd^2+ and Pb^2+; pH 3.53.
Test Sample 1 (TS 1, 100 ml), which initial metal cation concentrations were determined by using ICP-AES method, was treated with 1a (1.0 g) with stirring for 24 h. After filtration trough 0.2 μm syringe filter metal concentrations in solution were determined and removal per cents were calculated. Since TS 1 contained only small amounts of As, Cd and Pb, sample was spiked with known amounts of these metal cations. The spiked sample (100 ml) was treated with 1a (1 g) as original TS 1 sample.

[2] = Effect of contact time on expulsion percent, Pb^2+ and Hg^2+ spiked TS 5, 1a 100 mg/100 ml (Example 13)
Protocol: A test solution containing 1-15 mg/l of Al^3+, Fe^2/3+, Mg^2+, Mn^2+, Ni^2+ and Zn^2+; 0.1-0.9 mg/l of Ca^2+ and Na^+; and trace amount of other Cr^3+, Co^2+, Cu^2+, Eu^3+, La^3+, Nd^3+, Y^3+, UO2^2+ and Nb^5+ cations were prepared.
Effect of contact time to selected metal expulsion per cents was tested using TS 5 with comlexation agent 1a. TS 5 (100 ml), spiked with known amounts of lead (Pb^2+) and mercury (Hg^2+) cations, was stirred with 1a (100 mg) for selected times followed by separation of 1a by filtration trough 0.2 μm syringe filter. Metal concentrations after 5 min, 15 min, 30 min, 1 h, 2 h, 3.5 h, 6.5 h and 29.5 h were determined by using ICP-AES analysis.

[3] = Effect of complexation agent amount on expulsion percent (Example 11); conditions: Ca^2+ 2 ppm, pH 2.9
Protocol: A water solution (110 ml) containing known amount of single cationic element or elements, typically 0.5-200 ppm, was prepared from Merch Titrisol® standard solution. After adjusting pH by using acid (e.g. HCl or HNO3) or base (e.g. NaOH) to desired initial value, sample A (10 ml) was taken followed by adding 100 mg of selected solid complexation agent. The mixture was stirred at room temperature for 24 h and sample B (10 ml) was taken. Samples A and B were filtrated separately trough 0.2 μm syringe filter and the concentration of the studied element or elements in both solution was determined by using atomic absorption spectrophotometer. The expulsion percent was determined from the concentration differences between the sample solutions A and B.
Effect of amount of complexation agent 1a to expulsion percent was tested with 2.0 ppm calcium (Ca^2+) solution. A solution (100 ml) containing 2.0 ppm of calcium was stirred for 24 h with desired amount of complexation agent 1a (25 to 301 mg) at pH 2.9. Expulsions percent were determined for each solution using the general procedure and the results are collected in Table 6.

Structure (SMILES): NCCCCCCCCCCC(O)(P(=O)(O)O)P(=O)(O)O [Compound 1a, 11-Amino-1-hydroxyundecane-1,1-diyldiphosphonic acid]
- Expulsion [%] ([1]; Spiked TS 1, Al^3+): 67%
- Expulsion [%] ([1]; Spiked TS 1, As^3/5+): 0%
- Expulsion [%] ([1]; Spiked TS 1, Ba^2+): 26%
- Expulsion [%] ([1]; Spiked TS 1, Ca^2+): 48%
- Expulsion [%] ([1]; Spiked TS 1, Cd^2+): 96%
- Expulsion [%] ([1]; Spiked TS 1, Mg^2+): 78%
- Expulsion [%] ([1]; Spiked TS 1, Mn^2+): ≥ 51^2) %
- Expulsion [%] ([1]; Spiked TS 1, Ni^2+): 33%
- Expulsion [%] ([1]; Spiked TS 1, Pb^2+): 94%
- Expulsion [%] ([1]; Spiked TS 1, Zn^2+): 90%
- Expulsion [%] ([1]; TS 1, Al^3+): 76%
- Expulsion [%] ([1]; TS 1, Ba^2+): 32%
- Expulsion [%] ([1]; TS 1, Ca^2+): 51%
- Expulsion [%] ([1]; TS 1, Mg^2+): 81%
- Expulsion [%] ([1]; TS 1, Mn^2+): ≥ 57^2) %
- Expulsion [%] ([1]; TS 1, Ni^2+): 50%
- Expulsion [%] ([1]; TS 1, Zn^2+): 89%
- Expulsion [%] ([2]; Al^3+, 5 min): 8.3%
- Expulsion [%] ([2]; Al^3+, 15 min): 5.5%
- Expulsion [%] ([2]; Al^3+, 30 min): 7.1%
- Expulsion [%] ([2]; Al^3+, 60 min): 5.9%
- Expulsion [%] ([2]; Al^3+, 120 min): 8.7%
- Expulsion [%] ([2]; Al^3+, 210 min): 18.5%
- Expulsion [%] ([2]; Al^3+, 390 min): 26.0%
- Expulsion [%] ([2]; Al^3+, 1770 min): 27.2%
- Expulsion [%] ([2]; Ca^2+, 5 min): 2.7%
- Expulsion [%] ([2]; Ca^2+, 15 min): 0%
- Expulsion [%] ([2]; Ca^2+, 30 min): 0%
- Expulsion [%] ([2]; Ca^2+, 60 min): 0%
- Expulsion [%] ([2]; Ca^2+, 120 min): 0%
- Expulsion [%] ([2]; Ca^2+, 210 min): 0%
- Expulsion [%] ([2]; Ca^2+, 390 min): 9.8%
- Expulsion [%] ([2]; Ca^2+, 1770 min): 18.7%
- Expulsion [%] ([2]; Cd^2+, 5 min): 2.9%
- Expulsion [%] ([2]; Cd^2+, 15 min): 3.9%
- Expulsion [%] ([2]; Cd^2+, 30 min): 5.1%
- Expulsion [%] ([2]; Cd^2+, 60 min): 7.5%
- Expulsion [%] ([2]; Cd^2+, 120 min): 10.9%
- Expulsion [%] ([2]; Cd^2+, 210 min): 15.0%
- Expulsion [%] ([2]; Cd^2+, 390 min): 28.1%
- Expulsion [%] ([2]; Cd^2+, 1770 min): 36.6%
- Expulsion [%] ([2]; Fe^2/3+, 5 min): 0%
- Expulsion [%] ([2]; Fe^2/3+, 15 min): 0.7%
- Expulsion [%] ([2]; Fe^2/3+, 30 min): 0%
- Expulsion [%] ([2]; Fe^2/3+, 60 min): 3.0%
- Expulsion [%] ([2]; Fe^2/3+, 120 min): 6.7%
- Expulsion [%] ([2]; Fe^2/3+, 210 min): 8.9%
- Expulsion [%] ([2]; Fe^2/3+, 390 min): 20.7%
- Expulsion [%] ([2]; Fe^2/3+, 1770 min): 19.3%
- Expulsion [%] ([2]; Hg^2+, 5 min): 59.9%
- Expulsion [%] ([2]; Hg^2+, 15 min): 60.4%
- Expulsion [%] ([2]; Hg^2+, 30 min): 58.5%
- Expulsion [%] ([2]; Hg^2+, 60 min): 56.4%
- Expulsion [%] ([2]; Hg^2+, 120 min): 57.1%
- Expulsion [%] ([2]; Hg^2+, 210 min): 55.7%
- Expulsion [%] ([2]; Hg^2+, 390 min): 57.0%
- Expulsion [%] ([2]; Hg^2+, 1770 min): 49.6%
- Expulsion [%] ([2]; Mg^2+, 5 min): 1.4%
- Expulsion [%] ([2]; Mg^2+, 15 min): 1.8%
- Expulsion [%] ([2]; Mg^2+, 30 min): 0.2%
- Expulsion [%] ([2]; Mg^2+, 60 min): 4.4%
- Expulsion [%] ([2]; Mg^2+, 120 min): 5.8%
- Expulsion [%] ([2]; Mg^2+, 210 min): 6.9%
- Expulsion [%] ([2]; Mg^2+, 390 min): 16.4%
- Expulsion [%] ([2]; Mg^2+, 1770 min): 19.8%
- Expulsion [%] ([2]; Mn^2+, 5 min): 3.4%
- Expulsion [%] ([2]; Mn^2+, 15 min): 4.3%
- Expulsion [%] ([2]; Mn^2+, 30 min): 4.3%
- Expulsion [%] ([2]; Mn^2+, 60 min): 6.3%
- Expulsion [%] ([2]; Mn^2+, 120 min): 10.5%
- Expulsion [%] ([2]; Mn^2+, 210 min): 13.1%
- Expulsion [%] ([2]; Mn^2+, 390 min): 27.0%
- Expulsion [%] ([2]; Mn^2+, 1770 min): 29.1%
- Expulsion [%] ([2]; Ni^2+, 5 min): 1.4%
- Expulsion [%] ([2]; Ni^2+, 15 min): 1.8%
- Expulsion [%] ([2]; Ni^2+, 30 min): 1.4%
- Expulsion [%] ([2]; Ni^2+, 60 min): 4.1%
- Expulsion [%] ([2]; Ni^2+, 120 min): 5.0%
- Expulsion [%] ([2]; Ni^2+, 210 min): 7.8%
- Expulsion [%] ([2]; Ni^2+, 390 min): 13.2%
- Expulsion [%] ([2]; Ni^2+, 1770 min): 15.5%
- Expulsion [%] ([2]; Pb^2+, 5 min): 28.5%
- Expulsion [%] ([2]; Pb^2+, 15 min): 34.7%
- Expulsion [%] ([2]; Pb^2+, 30 min): 56.3%
- Expulsion [%] ([2]; Pb^2+, 60 min): 49.4%
- Expulsion [%] ([2]; Pb^2+, 120 min): 65.7%
- Expulsion [%] ([2]; Pb^2+, 210 min): 89.8%
- Expulsion [%] ([2]; Pb^2+, 390 min): 94.6%
- Expulsion [%] ([2]; Pb^2+, 1770 min): 98.1%
- Expulsion [%] ([2]; Zn^2+, 5 min): 2.5%
- Expulsion [%] ([2]; Zn^2+, 15 min): 3.7%
- Expulsion [%] ([2]; Zn^2+, 30 min): 4.9%
- Expulsion [%] ([2]; Zn^2+, 60 min): 6.5%
- Expulsion [%] ([2]; Zn^2+, 120 min): 9.8%
- Expulsion [%] ([2]; Zn^2+, 210 min): 13.9%
- Expulsion [%] ([2]; Zn^2+, 390 min): 27.1%
- Expulsion [%] ([2]; Zn^2+, 1770 min): 30.8%
- Expulsion [%] ([3]; 25 mg of 1a in 100 ml): 41.3%
- Expulsion [%] ([3]; 52 mg of 1a in 100 ml): 45.9%
- Expulsion [%] ([3]; 75 mg of 1a in 100 ml): 53.6%
- Expulsion [%] ([3]; 101 mg of 1a in 100 ml): 59.4%
- Expulsion [%] ([3]; 125 mg of 1a in 100 ml): 63.6%
- Expulsion [%] ([3]; 150 mg of 1a in 100 ml): 67.1%
- Expulsion [%] ([3]; 175 mg of 1a in 100 ml): 70.2%
- Expulsion [%] ([3]; 200 mg of 1a in 100 ml): 71.0%
- Expulsion [%] ([3]; 225 mg of 1a in 100 ml): 76.6%
- Expulsion [%] ([3]; 250 mg of 1a in 100 ml): 79.6%
- Expulsion [%] ([3]; 275 mg of 1a in 100 ml): 85.6%
- Expulsion [%] ([3]; 301 mg of 1a in 100 ml): 83.5%
